Laboratory results: PubChem BioAssay (NCI)
Values joined by “and” are separate entries in the source; they are usually repeats but may differ in a detail not shown here. Equal entries are not always repeated.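 Protocol summary: plate cells (96-well), add compound at 5 concentrations, incubate 48 h, interpolate endpoints linearly. GI50 marks 50% less growth. Definition used: TGI = concentration required for complete inhibition of growth.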

Columns and labels:
Assay in all cases: NCI tumour cell line growth inhibition, 48 h
DLD-1 colon = test system: DLD-1 colon
HOP-18 NSCLC = test system: HOP-18 NSCLC
KM20L2 colon = test system: KM20L2 colon
P388/ADR leukemia = test system: P388/ADR leukemia
SN12K1 renal = test system: SN12K1 renal
MDA-N = test system: MDA-N
T-47D breast = test system: T-47D breast
PC-3 prostate = test system: PC-3 prostate
DU-145 prostate = test system: DU-145 prostate
BT-549 breast = test system: BT-549 breast
MDA-MB-435 = test system: MDA-MB-435

SMILES	TGI (DLD-1 colon)	TGI (HOP-18 NSCLC)	TGI (KM20L2 colon)	also measured
COc1ccc(NC(=O)C(=O)Cc2nc3ccc([N+](=O)[O-])cc3[nH]c2=O)c(OC)c1	> 100 µM	> 100 µM	> 100 µM	–
COC(=O)C(C(=O)C(=O)Nc1ccc(C(F)(F)F)cc1[N+](=O)[O-])c1csc(-n2nc(-c3ccccc3)cc2-c2ccccc2)n1 (stereo not drawn)	–	–	> 100 µM	–
O=C(c1ccc(Cl)cc1)c1ccc(OCCCCCCCCCCOc2ccc(C(=O)c3ccc(Cl)cc3)cc2)cc1	> 100 µM	–	> 100 µM	–
O=C(/C=C/c1ccccc1)CC1OC(=O)c2ccccc21 (stereo not drawn)	> 100 µM	78.4 µM	> 100 µM	–
Clc1ccc(Cc2nc3ccccc3s2)c(Cl)c1	29 µM	31.4 µM	52 µM	–
CC(=O)Nc1ccc(C(=O)NN2C(=O)C(Cl)C2c2ccc([N+](=O)[O-])cc2)cc1 (stereo not drawn)	–	–	> 100 µM	–
O=C(c1ccccc1)C1CCCCN1C(=O)c1ccccc1 (stereo not drawn)	> 100 µM	> 100 µM	> 100 µM	–
CCCNCCCC(NC(C)=O)C(=O)NCc1ccccc1 (stereo not drawn)	> 100 µM	–	> 100 µM	–
CC12N=NN(c3ccc([N+](=O)[O-])cc3)C1(O)c1ccccc1C2=O (stereo not drawn)	–	–	> 100 µM	–
C=CC1[C@H]2COC(C)(C)O[C@@H]2CC(=O)C1(C)C (stereo partly drawn)	> 100 µM	> 100 µM	> 100 µM	–
CCCCc1c2c(nc3c1CCc1cc4cc5c(nc4nc1-3)-c1nc3c(c(CCCC)c1CC5)CCCC3)CCCC2	> 100 µM	–	69.3 µM	–
CCc1cccc(C(C)C)c1NC(=O)C(=O)CC(=O)c1c(C)n([O-])c2ccccc2[n+]1=O	> 100 µM	–	> 100 µM	–
CC(C)C1(O)C(c2ccccc2)=C(c2ccccc2)C(c2ccccc2)=C1c1ccccc1	> 100 µM	52.7 µM	23.3 µM	–
CC[C@@]1(O)C[C@H](OC2CC(N(C)C)C(OC3CC(O)C(OC4CCC(=O)C(C)O4)C(C)O3)C(C)O2)c2c(cc3c(c2O)C(=O)c2c(O)cccc2C3=O)[C@H]1C(=O)OC (stereo partly drawn)	1.15 µM and 1.17 µM	0.854 µM and 2.72 µM	0.249 µM and 1.07 µM	GI50 (DLD-1 colon): 0.00912 µM and 0.00788 µM; TGI (P388/ADR leukemia): 0.659 µM; TGI (SN12K1 renal): 0.101 µM; TGI (MDA-N): 0.0485 µM and 0.131 µM; TGI (T-47D breast): 0.472 µM and 2.63 µM; GI50 (KM20L2 colon): 0.00595 µM and 0.00275 µM; TGI (PC-3 prostate): 0.132 µM and 0.062 µM; TGI (DU-145 prostate): 0.42 µM and 1.73 µM
O=c1[nH]c(=O)n([C@@H]2C[C@H](CO)[C@H](O)C2)cc1/C=C/Br	> 100 µM	> 100 µM	> 100 µM	–
CS(=O)(=O)OCCN1CCN(C(=O)c2cccc3c(Nc4ccc(S(=O)(=O)N=C(N)N)cc4)c4ccccc4nc23)CC1	> 100 µM	–	> 100 µM	–
CC(=O)NNc1nc(C)c(C(=O)NNC(=O)C(=O)Nc2c(C)cccc2C)s1	> 100 µM	> 100 µM	> 100 µM	–
COc1ccccc1N=C(N)N/N=C/c1c[nH]c2ccccc12	31.7 µM	34 µM	26.1 µM	–
CC(C)=CCC/C(C)=C/CC/C(C)=C/Cc1c(O)c2ccccc2oc1=O	> 100 µM	> 100 µM	> 100 µM	–
Cc1ccc(-c2cc(-c3ccco3)c(C#N)c(=O)[nH]2)cc1	> 100 µM	> 100 µM	> 100 µM	–
COc1ccc(-c2cc(=O)c3c(C)cc(C)nc3[nH]2)cc1	–	–	–	GI50 (MDA-N): 33.2 µM; TGI (MDA-N): > 100 µM; TGI (BT-549 breast): 86.7 µM; TGI (T-47D breast): > 100 µM; GI50 (MDA-MB-435): 29.1 µM; TGI (MDA-MB-435): > 100 µM; GI50 (PC-3 prostate): 23.9 µM; TGI (PC-3 prostate): > 100 µM; TGI (DU-145 prostate): > 100 µM
CCCCCCCCCCCCCCN	–	–	–	TGI (MDA-N): > 100 µM; TGI (BT-549 breast): > 100 µM; TGI (T-47D breast): > 100 µM; TGI (MDA-MB-435): > 100 µM; TGI (PC-3 prostate): > 100 µM; TGI (DU-145 prostate): > 100 µM
O=C(Nc1cccc([N+](=O)[O-])c1)C(=O)C(C(=O)c1ccccc1-c1ccccc1)C1OC(=O)c2ccccc21 (stereo not drawn)	42.2 µM	–	53.7 µM	–
Cn1nc(-c2ccccc2)c(C(=O)/C=C/c2ccc(F)cc2)c(N2CCCCC2)c1=O	16.6 µM	20.6 µM	19.2 µM	–
O=C(O)C1C2CCC(O2)C1C(=O)N1CCCCC1 (stereo not drawn)	39.7 µM	36.5 µM	13.1 µM	–
CCCCC1CC(c2cccc([N+](=O)[O-])c2)=NO1 (stereo not drawn)	> 100 µM	> 100 µM	> 100 µM	–
